Laboratory results as given in ChEMBL document CHEMBL1909046, “DrugMatrix in vitro pharmacology data”.

What was measured:
[1] = target: 5-hydroxytryptamine receptor 6 (Homo sapiens, UniProt P50406); type: cell membranes, HeLa, Membrane; details: hela
[2] = target: C-C chemokine receptor type 2 (Homo sapiens, UniProt P41597); type: cell membranes, Membrane; details: cho-k1
[3] = target: T1, Cholecystokinin receptor type A (Homo sapiens, UniProt P32238); type: cell membranes, Membrane; details: 1321-n1
T1 sequence (P32238 whole entry): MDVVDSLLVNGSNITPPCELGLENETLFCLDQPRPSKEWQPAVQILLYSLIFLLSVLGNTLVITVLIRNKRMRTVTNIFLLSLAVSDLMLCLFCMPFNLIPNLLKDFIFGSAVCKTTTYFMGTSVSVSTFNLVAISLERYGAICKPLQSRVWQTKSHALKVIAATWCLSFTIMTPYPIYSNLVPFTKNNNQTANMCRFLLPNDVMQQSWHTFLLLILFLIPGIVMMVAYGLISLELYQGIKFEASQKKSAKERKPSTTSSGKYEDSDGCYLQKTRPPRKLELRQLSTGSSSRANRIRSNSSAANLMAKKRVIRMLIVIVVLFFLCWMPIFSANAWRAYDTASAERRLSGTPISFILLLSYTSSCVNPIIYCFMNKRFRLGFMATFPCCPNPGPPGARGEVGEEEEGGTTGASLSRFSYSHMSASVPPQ

[4] = target: Prostaglandin G/H synthase 1 (Homo sapiens, UniProt P23219); assay: biochemical; type: tissue-based, Platelet; details: platelet;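 note: inhibition of COX-1 enzyme activity, with arachidonic acid supplied as substrate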
Insulin receptor = Insulin receptor (Rattus norvegicus, UniProt P15127); type: cell membranes, Wistar, Liver, Membrane
Neutrophil elastase = target: T2, Neutrophil elastase (Homo sapiens, UniProt P08246); type: tissue-based;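 note: inhibition of neutrophil elastase enzyme activity, measured with a p-nitroanilide-linked peptide substrate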
T2 sequence (P08246 whole entry): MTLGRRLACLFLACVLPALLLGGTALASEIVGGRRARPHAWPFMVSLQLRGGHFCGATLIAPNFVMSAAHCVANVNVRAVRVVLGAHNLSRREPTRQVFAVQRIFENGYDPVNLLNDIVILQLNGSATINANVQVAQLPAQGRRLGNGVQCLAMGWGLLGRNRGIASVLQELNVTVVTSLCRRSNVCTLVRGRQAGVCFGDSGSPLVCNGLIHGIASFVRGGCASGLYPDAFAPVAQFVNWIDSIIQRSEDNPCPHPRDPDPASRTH

[5] = target: Mitogen-activated protein kinase 14 (Homo sapiens, UniProt Q16539); design: species or system Escherichia coli;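 note: inhibition of p38alpha enzyme activity in a biochemical kinase assay, with myelin basic protein serving as substrate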
Glucocorticoid receptor = target: T3, Glucocorticoid receptor (Homo sapiens, UniProt P04150); details: hela s3
T3 sequence (P04150 whole entry): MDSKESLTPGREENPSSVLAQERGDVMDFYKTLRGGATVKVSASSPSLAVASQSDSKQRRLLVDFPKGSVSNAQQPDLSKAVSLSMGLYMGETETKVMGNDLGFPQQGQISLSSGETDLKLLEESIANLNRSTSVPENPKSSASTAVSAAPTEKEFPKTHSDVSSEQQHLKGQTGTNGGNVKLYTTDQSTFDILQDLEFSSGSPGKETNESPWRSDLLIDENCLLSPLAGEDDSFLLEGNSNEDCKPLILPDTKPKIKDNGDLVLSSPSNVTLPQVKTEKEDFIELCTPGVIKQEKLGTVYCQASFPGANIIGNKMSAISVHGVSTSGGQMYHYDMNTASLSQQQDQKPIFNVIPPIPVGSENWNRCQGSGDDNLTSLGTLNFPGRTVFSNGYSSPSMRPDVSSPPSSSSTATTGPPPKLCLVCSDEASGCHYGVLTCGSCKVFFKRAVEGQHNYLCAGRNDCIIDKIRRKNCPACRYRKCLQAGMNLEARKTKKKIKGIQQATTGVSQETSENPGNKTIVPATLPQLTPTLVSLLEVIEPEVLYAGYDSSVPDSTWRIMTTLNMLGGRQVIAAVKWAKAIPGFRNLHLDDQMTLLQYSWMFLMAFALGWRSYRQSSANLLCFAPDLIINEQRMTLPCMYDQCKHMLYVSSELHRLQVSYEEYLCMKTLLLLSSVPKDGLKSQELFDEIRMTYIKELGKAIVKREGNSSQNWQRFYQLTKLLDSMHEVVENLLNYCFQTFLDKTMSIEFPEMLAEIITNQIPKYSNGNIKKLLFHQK

Measured: IC50
Note: in other assays of this panel Not Active means under 50% inhibition at 10 µM.

Chain of 5-hydroxytryptamine receptor 6 (P50406 whole entry): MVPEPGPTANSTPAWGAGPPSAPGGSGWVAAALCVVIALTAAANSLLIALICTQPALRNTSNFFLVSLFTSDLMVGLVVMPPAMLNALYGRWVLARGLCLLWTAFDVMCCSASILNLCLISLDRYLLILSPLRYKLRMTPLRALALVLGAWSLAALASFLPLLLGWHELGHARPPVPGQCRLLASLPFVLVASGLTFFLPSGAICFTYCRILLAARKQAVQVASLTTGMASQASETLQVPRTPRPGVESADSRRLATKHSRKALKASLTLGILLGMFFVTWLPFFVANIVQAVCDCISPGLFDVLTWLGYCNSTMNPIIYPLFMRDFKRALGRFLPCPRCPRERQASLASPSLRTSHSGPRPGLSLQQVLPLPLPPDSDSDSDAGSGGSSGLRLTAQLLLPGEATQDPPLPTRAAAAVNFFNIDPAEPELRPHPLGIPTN
Chain of C-C chemokine receptor type 2 (P41597 whole entry): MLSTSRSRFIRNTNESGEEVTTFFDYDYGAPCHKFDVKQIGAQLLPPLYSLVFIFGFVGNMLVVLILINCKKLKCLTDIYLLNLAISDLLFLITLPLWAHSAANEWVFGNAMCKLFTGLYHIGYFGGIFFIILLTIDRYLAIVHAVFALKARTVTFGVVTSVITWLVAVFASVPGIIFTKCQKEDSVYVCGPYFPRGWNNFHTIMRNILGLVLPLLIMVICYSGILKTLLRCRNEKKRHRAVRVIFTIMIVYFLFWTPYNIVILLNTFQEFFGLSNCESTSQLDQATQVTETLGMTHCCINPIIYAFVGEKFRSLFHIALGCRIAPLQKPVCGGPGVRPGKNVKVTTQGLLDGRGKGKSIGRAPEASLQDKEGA
Chain of Mitogen-activated protein kinase 14 (Q16539 whole entry): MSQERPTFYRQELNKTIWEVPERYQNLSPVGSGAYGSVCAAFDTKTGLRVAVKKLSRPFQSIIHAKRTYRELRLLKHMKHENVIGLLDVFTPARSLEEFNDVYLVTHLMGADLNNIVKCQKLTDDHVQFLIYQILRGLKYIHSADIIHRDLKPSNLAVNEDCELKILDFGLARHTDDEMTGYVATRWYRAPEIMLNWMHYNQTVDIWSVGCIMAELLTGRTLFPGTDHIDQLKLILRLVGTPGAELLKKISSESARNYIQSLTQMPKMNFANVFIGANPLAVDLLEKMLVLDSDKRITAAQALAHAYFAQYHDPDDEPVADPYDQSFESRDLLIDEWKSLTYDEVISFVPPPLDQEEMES
Chain of Prostaglandin G/H synthase 1 (P23219 whole entry): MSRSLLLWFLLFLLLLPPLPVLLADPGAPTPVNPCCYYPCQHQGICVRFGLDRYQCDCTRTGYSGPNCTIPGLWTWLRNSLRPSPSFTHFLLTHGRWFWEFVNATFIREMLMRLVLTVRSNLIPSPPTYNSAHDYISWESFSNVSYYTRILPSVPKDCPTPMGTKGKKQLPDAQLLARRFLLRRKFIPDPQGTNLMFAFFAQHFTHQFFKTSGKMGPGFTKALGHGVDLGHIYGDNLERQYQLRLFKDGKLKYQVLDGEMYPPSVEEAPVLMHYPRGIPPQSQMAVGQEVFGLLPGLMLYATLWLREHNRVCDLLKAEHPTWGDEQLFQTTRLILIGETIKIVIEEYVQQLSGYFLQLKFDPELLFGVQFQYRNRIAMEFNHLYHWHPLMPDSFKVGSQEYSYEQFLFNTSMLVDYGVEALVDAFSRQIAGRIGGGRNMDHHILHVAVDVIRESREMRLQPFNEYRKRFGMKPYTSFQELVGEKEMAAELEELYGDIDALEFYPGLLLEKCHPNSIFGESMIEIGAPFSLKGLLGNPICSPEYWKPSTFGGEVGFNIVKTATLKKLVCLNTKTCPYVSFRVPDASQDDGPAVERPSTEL
Chain of Insulin receptor (P15127 27-759 limits assumed): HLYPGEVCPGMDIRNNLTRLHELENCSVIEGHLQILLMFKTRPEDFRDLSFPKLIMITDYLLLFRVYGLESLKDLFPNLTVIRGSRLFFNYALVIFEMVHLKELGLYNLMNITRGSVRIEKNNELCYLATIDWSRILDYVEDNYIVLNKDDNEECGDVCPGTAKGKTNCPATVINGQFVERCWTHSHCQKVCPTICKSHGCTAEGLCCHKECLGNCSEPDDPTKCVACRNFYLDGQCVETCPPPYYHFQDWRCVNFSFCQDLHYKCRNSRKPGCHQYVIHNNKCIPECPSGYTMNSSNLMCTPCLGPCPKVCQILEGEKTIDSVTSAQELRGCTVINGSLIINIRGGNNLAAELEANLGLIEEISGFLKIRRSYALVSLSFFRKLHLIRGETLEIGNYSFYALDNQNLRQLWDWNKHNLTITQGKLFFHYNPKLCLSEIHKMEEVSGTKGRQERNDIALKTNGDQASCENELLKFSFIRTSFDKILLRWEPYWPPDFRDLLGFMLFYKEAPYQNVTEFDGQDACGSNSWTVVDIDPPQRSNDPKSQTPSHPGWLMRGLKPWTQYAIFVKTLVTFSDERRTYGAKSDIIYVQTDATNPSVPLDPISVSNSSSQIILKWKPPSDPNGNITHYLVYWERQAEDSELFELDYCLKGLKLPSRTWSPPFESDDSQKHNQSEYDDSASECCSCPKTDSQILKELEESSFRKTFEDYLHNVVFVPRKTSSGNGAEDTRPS
Chain of Insulin receptor (P15127 764-1383 limits assumed): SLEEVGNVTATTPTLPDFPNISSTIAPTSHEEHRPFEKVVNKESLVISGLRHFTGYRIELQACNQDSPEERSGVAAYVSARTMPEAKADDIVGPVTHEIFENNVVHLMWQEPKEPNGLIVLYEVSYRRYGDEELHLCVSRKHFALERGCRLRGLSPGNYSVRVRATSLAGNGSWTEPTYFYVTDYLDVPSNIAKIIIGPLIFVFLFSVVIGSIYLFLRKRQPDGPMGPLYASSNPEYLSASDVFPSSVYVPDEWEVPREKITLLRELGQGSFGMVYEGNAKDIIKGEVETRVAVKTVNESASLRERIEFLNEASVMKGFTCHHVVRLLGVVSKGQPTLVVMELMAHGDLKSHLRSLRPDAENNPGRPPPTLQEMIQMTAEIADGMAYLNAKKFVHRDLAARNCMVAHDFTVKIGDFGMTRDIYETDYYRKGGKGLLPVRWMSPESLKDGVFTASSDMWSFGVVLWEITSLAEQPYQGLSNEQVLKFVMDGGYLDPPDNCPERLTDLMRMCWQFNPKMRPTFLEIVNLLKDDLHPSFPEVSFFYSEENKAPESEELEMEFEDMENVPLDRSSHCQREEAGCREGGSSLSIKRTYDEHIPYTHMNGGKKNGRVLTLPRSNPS

CN(C)C(=N)NC(=N)N [METFORMIN]
Not Active: all assays above

CC(C)(C)NCC(O)COc1cccc2c1CC(O)C(O)C2 (centres undefined) [NADOLOL]
Not Active: all assays above

C[C@]12CC[C@H]3[C@@H](CCC4=CC(=O)CC[C@@H]43)[C@@H]1CC[C@@H]2O [NANDROLONE]
Not Active: all assays above

C[C@@H]1C/C=C/C=C/C=C/C=C/[C@H](O[C@@H]2O[C@H](C)[C@@H](O)[C@H](N)[C@@H]2O)C[C@@H]2O[C@](O)(C[C@@H](O)C[C@H]3O[C@@H]3/C=C/C(=O)O1)C[C@H](O)[C@H]2C(=O)O [NATAMYCIN]
Not Active: all assays above

CN(C)C(=O)Oc1cccc([N+](C)(C)C)c1.[Br-] [NEOSTIGMINE BROMIDE]
Not Active: all assays above

NC(=O)c1cccnc1 [NIACINAMIDE]
Not Active: all assays above

CN1C(=O)CN=C(c2ccccc2)c2cc([N+](=O)[O-])ccc21 [NIMETAZEPAM]
Not Active: all assays above

COc1ccc2c(c1OC)C(=O)O[C@@H]2[C@H]1c2c(cc3c(c2OC)OCO3)CCN1C [NOSCAPINE]
Not Active: all assays above

C[C@@H]1O[C@@H](O[C@H]2C[C@@H](O)[C@]3(CO)[C@H]4[C@H](O)C[C@]5(C)[C@@H](C6=CC(=O)OC6)CC[C@]5(O)[C@@H]4CC[C@]3(O)C2)[C@H](O)[C@H](O)[C@H]1O [OUABAIN]
Not Active: all assays above

COc1ccnc(C[S+]([O-])c2nc3ccc(OC(F)F)cc3[nH]2)c1OC (centres undefined) [PANTOPRAZOLE]
Not Active: all assays above

N=C(N)c1ccc(OCCCCCOc2ccc(C(=N)N)cc2)cc1 [PENTAMIDINE]
Not Active: all assays above

NNCCc1ccccc1 [PHENELZINE]
Not Active: all assays above

CCc1ccc(CCOc2ccc(CC3SC(=O)NC3=O)cc2)nc1 (centres undefined) [PIOGLITAZONE]
Not Active: all assays above
